Patent US5698532A, “Pyrimidine nucleosides and methods for treating viral infections with same” (priority 1995, dated 1997)
Like-named read-outs stand apart in the source and are kept apart here. Blank lines part the entries; values can stand above or below the compound they belong to.

Key:
[1] = Oral bioavailability (rat); type: in vivo; conditions: for bioavailability: in vivo, po
[2] = biological target: HSV-2 thymidine kinase (Human herpesvirus 2, UniProt P89446); assay: inhibition of HSV-2 thymidine kinase; type: biochemical
Chain of HSV-2 thymidine kinase (P89446 whole entry): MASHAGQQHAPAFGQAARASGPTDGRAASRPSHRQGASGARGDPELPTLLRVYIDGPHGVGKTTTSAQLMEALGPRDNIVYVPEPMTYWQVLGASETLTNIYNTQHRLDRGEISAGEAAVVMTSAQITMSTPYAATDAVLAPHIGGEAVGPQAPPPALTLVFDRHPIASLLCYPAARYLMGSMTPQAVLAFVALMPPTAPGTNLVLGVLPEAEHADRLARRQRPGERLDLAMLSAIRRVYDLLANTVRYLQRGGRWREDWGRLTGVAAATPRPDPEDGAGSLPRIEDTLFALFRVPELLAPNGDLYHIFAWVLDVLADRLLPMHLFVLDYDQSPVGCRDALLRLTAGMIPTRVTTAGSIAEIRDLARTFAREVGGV
Experimental: In this test procedure, the assay mixture contains 50 mmol Tris HCl, pH 8, 5 mmol magnesium chloride, 5 mmol ATP, 0.3 μmol ^3 H-thymidine (50 Ci/mmol), suitably diluted enzyme preparation and various concentrations of test compounds in a total volume of 100 μl. Assays are incubated at 37° C. for 30 minutes and the reaction is terminated by immersion in a boiling water bath for 2 minutes. 85 μl aliquots from each assay are then dried on to DEAE-cellulose paper discs and the unphosphorylated ^3 H-thymidine is removed by washing in 4 mmol ammonium formate. The radioactivity remaining bound to the discs is then measured by scintillation spectrophotometry. The degree of inhibition at each concentration of test compound is expressed as a percentage of the control reaction (100%) after subtracting a measured blank value which represents the amount of radioactivity bound to the disc from a reaction containing heat-inactivated enzymes. The lC50 value, namely the concentration of test compound which inhibits enzyme activity by 50%, is then calculated.

[3] = 37° C., 30 minutes, pH 8, 3H-thymidine, read-out: Activity against HSV-2 TK, IC50

IC50 [2, 3]: 4 nM
SMILES: CCc1cn([C@@H]2O[C@H](CNC(=O)C(C)Oc3ccc(Cl)cc3Cl)[C@@H](O)[C@@H]2F)c(=O)[nH]c1=O (mixture of isomers) [Compound B]

Oral bioavailability (rat) [1]: too low to calculate
SMILES: CCc1cn([C@H]2C[C@H](O)[C@@H](CNC(=O)C(C)Oc3ccc(Cl)cc3Cl)O2)c(=O)[nH]c1=O (single isomer, unassigned) [compound A, diastereoisomer b]

More lines, now with the values behind:

SMILES: CCc1cn([C@H]2C[C@H](O)[C@@H](CNC(=O)C(C)Oc3ccc(Cl)cc3Cl)O2)c(=O)[nH]c1=O (single isomer, unassigned) [Compound A, diastereoisomer a]
bioavailability [1]: 2.84%

SMILES: CCc1cn([C@@H]2O[C@H](CNC(=O)[C@H](C)Oc3cc(OC)c(Cl)cc3Cl)[C@@H](O)[C@@H]2F)c(=O)[nH]c1=O [Compound (I), 1-[5-[2(S)-(2,4-dichloro-5-methoxy-phenoxy)propionamido]-2,5-dideoxy-2-fluoro-β-D-arabino-furanosyl]-5-ethyluracil]
IC50 [2]: 0.18 nM | bioavailability [1]: 26%

SMILES: CCc1cn([C@@H]2O[C@H](CNC(=O)C(C)Oc3ccc(Cl)cc3Cl)[C@@H](O)[C@@H]2F)c(=O)[nH]c1=O (single isomer, unassigned) [Compound B, diastereoisomer a]
bioavailability [1]: 14.4%

SMILES: CCc1cn([C@@H]2O[C@H](CNC(=O)C(C)Oc3ccc(Cl)cc3Cl)[C@@H](O)[C@@H]2F)c(=O)[nH]c1=O (single isomer, unassigned) [Compound B, diastereoisomer b]
Oral bioavailability (rat) [1]: 12.9%

SMILES: CCc1cn([C@H]2C[C@H](O)[C@@H](CNC(=O)C(C)Oc3ccc(Cl)cc3Cl)O2)c(=O)[nH]c1=O (mixture of isomers) [Compound A]
IC50 [2, 3]: 3.7 nM
